Assay results: paper PMC5218480 (PLoS ONE, 2017)

System: MV-4-11 cells
Assay: Gene expression microarray analysis (Affymetrix PrimeView) and GSEA
Format: cell-based, human
Parameters: RFU PODN (11730768_x_at) / Fold change /veh PODN (11730768_x_at) / RFU LINC00158 (11744669_a_at) / Fold change /veh LINC00158 (11744669_a_at) / RFU DUSP10 (11751237_a_at) / Fold change /veh DUSP10 (11751237_a_at) / RFU ID3 (11757404_x_at) / Fold change /veh ID3 (11757404_x_at) / RFU PLEKHG5 (11737974_s_at) / Fold change /veh PLEKHG5 (11737974_s_at) / RFU LRRC4B (11730491_at) / Fold change /veh LRRC4B (11730491_at) / RFU GIMAP4 (11747438_a_at) / Fold change /veh GIMAP4 (11747438_a_at) / RFU KRT8 (11758183_x_at) / Fold change /veh KRT8 (11758183_x_at) / RFU CNN1 (11734310_a_at) / Fold change /veh CNN1 (11734310_a_at) / RFU VPS37D (11726825_at) / Fold change /veh VPS37D (11726825_at) / RFU C10orf10 (11716522_x_at) / Fold change /veh C10orf10 (11716522_x_at) / RFU KIR2DL2 /// KIR2DL4 /// KIR2DL5A /// KIR2DL5B /// KIR2DS1 /// KIR2DS2 /// KIR2DS3 /// KIR2DS4 /// KIR3DL3 /// KIR3DL3 /// KIR3DS1 (11738374_at) / Fold change /veh KIR2DL2 /// KIR2DL4 /// KIR2DL5A /// KIR2DL5B /// KIR2DS1 /// KIR2DS2 /// KIR2DS3 /// KIR2DS4 /// KIR3DL3 /// KIR3DL3 /// KIR3DS1 (11738374_at) / RFU C1QL1 (11718748_at) / Fold change /veh C1QL1 (11718748_at) / RFU TMPRSS4 (11747572_a_at) / Fold change /veh TMPRSS4 (11747572_a_at) / RFU HAMP (11756126_x_at) / Fold change /veh HAMP (11756126_x_at) / RFU RNFT2 (11725882_a_at) / Fold change /veh RNFT2 (11725882_a_at) / RFU NR4A2 (11747474_a_at) / Fold change /veh NR4A2 (11747474_a_at) / RFU ABCC12 (11746883_a_at) / Fold change /veh ABCC12 (11746883_a_at) / RFU TMEM136 (11760407_x_at) / Fold change /veh TMEM136 (11760407_x_at) / RFU CLDN22 /// WWC2 (11732394_at) / Fold change /veh CLDN22 /// WWC2 (11732394_at) / RFU HLA-DPB1 (11760878_x_at) / Fold change /veh HLA-DPB1 (11760878_x_at) / RFU SPINT1 (11716480_a_at) / Fold change /veh SPINT1 (11716480_a_at) / RFU GAP43 (11754022_s_at) / Fold change /veh GAP43 (11754022_s_at) / RFU A4GNT (11735810_at) / Fold change /veh A4GNT (11735810_at) / RFU PRB3 (11715151_x_at) / Fold change /veh PRB3 (11715151_x_at) / RFU TUBB4B (11761932_at) / Fold change /veh TUBB4B (11761932_at) / RFU CAPN14 (11732068_a_at) / Fold change /veh CAPN14 (11732068_a_at) / RFU TMCC2 (11721928_a_at) / Fold change /veh TMCC2 (11721928_a_at) / RFU IRGQ (11745062_a_at) / Fold change /veh IRGQ (11745062_a_at) / RFU FAM174B (11720279_a_at) / Fold change /veh FAM174B (11720279_a_at) / RFU TMPRSS4 (11748680_a_at) / Fold change /veh TMPRSS4 (11748680_a_at) / RFU FAM212B (11763350_a_at) / Fold change /veh FAM212B (11763350_a_at) / RFU PLEKHG5 (11743358_a_at) / Fold change /veh PLEKHG5 (11743358_a_at) / RFU ZSCAN30 (11745921_a_at) / Fold change /veh ZSCAN30 (11745921_a_at) / RFU CMKLR1 (11741424_a_at) / Fold change /veh CMKLR1 (11741424_a_at) / RFU LOC101060620 /// MAPK8IP1 (11723275_at) / Fold change /veh LOC101060620 /// MAPK8IP1 (11723275_at) / RFU SPTSSB (11747773_x_at) / Fold change /veh SPTSSB (11747773_x_at) / RFU PRSS12 (11739890_at) / Fold change /veh PRSS12 (11739890_at) / RFU BIN1 (11741810_x_at) / Fold change /veh BIN1 (11741810_x_at) / RFU WNT11 (11732464_a_at) / Fold change /veh WNT11 (11732464_a_at) / RFU C10orf10 (11716521_a_at) / Fold change /veh C10orf10 (11716521_a_at) / RFU C5orf56 (11738089_at) / Fold change /veh C5orf56 (11738089_at) / RFU CYB561 (11721691_x_at) / Fold change /veh CYB561 (11721691_x_at) / RFU ANKRD19P (11752326_a_at) / Fold change /veh ANKRD19P (11752326_a_at) / RFU OR2T12 /// OR2T33 /// OR2T8 (11738714_s_at) / Fold change /veh OR2T12 /// OR2T33 /// OR2T8 (11738714_s_at) / RFU VCAN (11748164_a_at) / Fold change /veh VCAN (11748164_a_at) / RFU JSRP1 (11732532_at) / Fold change /veh JSRP1 (11732532_at) / RFU KRTAP10-11 (11738290_x_at) / Fold change /veh KRTAP10-11 (11738290_x_at) / RFU MYO3A (11730013_a_at) / Fold change /veh MYO3A (11730013_a_at) / RFU EBF3 (11725865_a_at) / Fold change /veh EBF3 (11725865_a_at) / RFU CAMK2N1 (11719241_x_at) / Fold change /veh CAMK2N1 (11719241_x_at) / RFU C5orf56 (11738088_a_at) / Fold change /veh C5orf56 (11738088_a_at) / RFU OLFML3 (11715873_a_at) / Fold change /veh OLFML3 (11715873_a_at) / RFU LOC100653217 /// NTM (11731650_a_at) / Fold change /veh LOC100653217 /// NTM (11731650_a_at) / RFU MAPK11 (11762145_a_at) / Fold change /veh MAPK11 (11762145_a_at) / RFU FIZ1 (11724087_x_at) / Fold change /veh FIZ1 (11724087_x_at) / RFU OASL (11726364_x_at) / Fold change /veh OASL (11726364_x_at) / RFU SOX15 (11748057_x_at) / Fold change /veh SOX15 (11748057_x_at) / RFU CD79A (11719716_a_at) / Fold change /veh CD79A (11719716_a_at) / RFU HIST1H1D (11736915_at) / Fold change /veh HIST1H1D (11736915_at) / RFU CASKIN2 (11723855_a_at) / Fold change /veh CASKIN2 (11723855_a_at) / RFU LOC730098 (11760151_x_at) / Fold change /veh LOC730098 (11760151_x_at) / RFU OR4N2 (11742367_at) / Fold change /veh OR4N2 (11742367_at) / RFU PRRT2 (11749266_a_at) / Fold change /veh PRRT2 (11749266_a_at) / RFU SNX32 (11753110_a_at) / Fold change /veh SNX32 (11753110_a_at) / RFU CDHR5 (11726645_a_at) / Fold change /veh CDHR5 (11726645_a_at) / RFU RCAN1 (11760418_a_at) / Fold change /veh RCAN1 (11760418_a_at) / RFU FAM167A (11723789_a_at) / Fold change /veh FAM167A (11723789_a_at) / RFU FAM26E (11764081_at) / Fold change /veh FAM26E (11764081_at) / RFU ISYNA1 (11749810_s_at) / Fold change /veh ISYNA1 (11749810_s_at) / RFU ACY1 (11761880_at) / Fold change /veh ACY1 (11761880_at) / RFU 11764098_at / Fold change /veh 11764098_at / RFU SAMD14 (11745864_x_at) / Fold change /veh SAMD14 (11745864_x_at) / RFU NPB (11741838_a_at) / Fold change /veh NPB (11741838_a_at) / RFU TMPRSS6 (11731388_a_at) / Fold change /veh TMPRSS6 (11731388_a_at) / RFU KRTAP10-2 (11738614_at) / Fold change /veh KRTAP10-2 (11738614_at) / RFU ARHGAP8 /// PRR5-ARHGAP8 (11727945_x_at) / Fold change /veh ARHGAP8 /// PRR5-ARHGAP8 (11727945_x_at) / RFU KRTAP5-7 /// NADSYN1 (11734609_at) / Fold change /veh KRTAP5-7 /// NADSYN1 (11734609_at) / RFU RASL12 (11751679_a_at) / Fold change /veh RASL12 (11751679_a_at) / RFU CDKN2B (11736163_a_at) / Fold change /veh CDKN2B (11736163_a_at) / RFU PRF1 (11729649_at) / Fold change /veh PRF1 (11729649_at) / RFU, ZNF638 /// ZNF638-IT1 / Fold change vs veh, ZNF638 /// ZNF638-IT1 / RFU, PANK3 / Fold change vs veh, PANK3 / RFU, SH3YL1 / Fold change vs veh, SH3YL1 / RFU, ZEB2 / Fold change vs veh, ZEB2 / RFU, NRIP1 / Fold change vs veh, NRIP1 / RFU, PTTG1IP / Fold change vs veh, PTTG1IP / RFU, CAPN2 / Fold change vs veh, CAPN2 / RFU, MED14 / Fold change vs veh, MED14 / RFU, SNORA58 / Fold change vs veh, SNORA58 / RFU, C1orf63 / Fold change vs veh, C1orf63 / RFU, LRRFIP1 / Fold change vs veh, LRRFIP1 / RFU, NDUFAF7 / Fold change vs veh, NDUFAF7 / RFU, SLC12A2 / Fold change vs veh, SLC12A2 / RFU, IBTK / Fold change vs veh, IBTK / RFU, ESF1 / Fold change vs veh, ESF1 / Fold change vs veh, TMEM50B / RFU, TAOK1 / Fold change vs veh, TAOK1 / RFU, ACBD3 / Fold change vs veh, ACBD3 / RFU, TMA16 / Fold change vs veh, TMA16 / RFU, RWDD3 / Fold change vs veh, RWDD3 / RFU, BCAT1 / Fold change vs veh, BCAT1 / RFU, EDEM3 / Fold change vs veh, EDEM3 / RFU, TMEM33 / Fold change vs veh, TMEM33 / RFU, WDR75 / Fold change vs veh, WDR75 / RFU, AHCTF1 / Fold change vs veh, AHCTF1 / RFU, TFRC / Fold change vs veh, TFRC / RFU, ZDHHC17 / Fold change vs veh, ZDHHC17 / RFU, NOM1 / Fold change vs veh, NOM1 / RFU, ARL8B / Fold change vs veh, ARL8B / RFU, ZBTB11 / Fold change vs veh, ZBTB11 / RFU, TAMM41 / Fold change vs veh, TAMM41 / RFU, KIAA1704 /// LOC100996395 / Fold change vs veh, KIAA1704 /// LOC100996395 / RFU, ING1 / Fold change vs veh, ING1 / RFU, TRMT61B / Fold change vs veh, TRMT61B / RFU, FUBP3 / Fold change vs veh, FUBP3 / RFU, TP53 / Fold change vs veh, TP53 / RFU, TNKS2 / Fold change vs veh, TNKS2 / RFU, ZFP14 / Fold change vs veh, ZFP14 / RFU, ACTR2 / Fold change vs veh, ACTR2 / RFU, PPP3R1 / Fold change vs veh, PPP3R1 / RFU, PIK3R1 / Fold change vs veh, PIK3R1 / RFU, HNRNPA1 / Fold change vs veh, HNRNPA1 / RFU, RNF170 / Fold change vs veh, RNF170 / RFU, ZNF28 / Fold change vs veh, ZNF28 / RFU, RNGTT / Fold change vs veh, RNGTT / RFU, OGT / Fold change vs veh, OGT / RFU, BRD1 / Fold change vs veh, BRD1 / RFU, MARS / Fold change vs veh, MARS / RFU, ZNF655 / Fold change vs veh, ZNF655 / RFU, FAHD1 / Fold change vs veh, FAHD1 / RFU, BDP1 / Fold change vs veh, BDP1 / RFU, LRRCC1 / Fold change vs veh, LRRCC1 / RFU, ARID1A / Fold change vs veh, ARID1A / RFU, ZNF146 / Fold change vs veh, ZNF146 / RFU, ZNF330 / Fold change vs veh, ZNF330 / RFU, GPN3 / Fold change vs veh, GPN3 / RFU, C9orf123 / Fold change vs veh, C9orf123 / RFU, N4BP2L2 / Fold change vs veh, N4BP2L2 / RFU, ARFIP1 / Fold change vs veh, ARFIP1 / RFU, FAM179B / Fold change vs veh, FAM179B / RFU, BCL10 / Fold change vs veh, BCL10 / RFU, UHRF1BP1L / Fold change vs veh, UHRF1BP1L / RFU, BET1 / Fold change vs veh, BET1 / RFU, CNOT2 / Fold change vs veh, CNOT2 / RFU, ZNF268 / Fold change vs veh, ZNF268 / Fold change vs veh, ZNF507 / RFU, DGCR2 / Fold change vs veh, DGCR2 / RFU, WDSUB1 / Fold change vs veh, WDSUB1 / Fold change vs veh, HSP90B1 /// MIR3652 / RFU, ADSS / Fold change vs veh, ADSS / RFU, GK / Fold change vs veh, GK / RFU, ZNF148 / Fold change vs veh, ZNF148 / RFU, TAF9 / Fold change vs veh, TAF9 / RFU, SLC1A5 / Fold change vs veh, SLC1A5 / RFU, SLMO2 / Fold change vs veh, SLMO2 / RFU, ABCC4 / Fold change vs veh, ABCC4 / RFU, LOC101060439 /// RAP1B / Fold change vs veh, LOC101060439 /// RAP1B / RFU, RFX7 / Fold change vs veh, RFX7 / RFU, GTPBP10 / Fold change vs veh, GTPBP10 / RFU, CNEP1R1 / Fold change vs veh, CNEP1R1 / RFU, BIVM-ERCC5 /// ERCC5 / Fold change vs veh, BIVM-ERCC5 /// ERCC5 / RFU, ILF3 / Fold change vs veh, ILF3 / RFU 11762660_at / Fold change /veh 11762660_at / RFU VCAN (11757783_s_at) / Fold change /veh VCAN (11757783_s_at) / RFU DDX43 (11728927_at) / Fold change /veh DDX43 (11728927_at) / RFU KRT8 (11758188_x_at) / Fold change /veh KRT8 (11758188_x_at) / RFU NKD1 (11759106_at) / Fold change /veh NKD1 (11759106_at) / RFU SRD5A1 (11742802_a_at) / Fold change /veh SRD5A1 (11742802_a_at) / RFU TPSAB1 /// TPSB2 (11721975_s_at) / Fold change /veh TPSAB1 /// TPSB2 (11721975_s_at) / RFU GSTM3 (11746129_a_at) / Fold change /veh GSTM3 (11746129_a_at) / RFU IL23R (11737362_x_at) / Fold change /veh IL23R (11737362_x_at) / RFU TMEM51 (11727254_a_at) / Fold change /veh TMEM51 (11727254_a_at) / RFU PIWIL2 (11732686_x_at) / Fold change /veh PIWIL2 (11732686_x_at) / RFU ORM1 (11744905_x_at) / Fold change /veh ORM1 (11744905_x_at) / RFU CCDC152 (11743942_at) / Fold change /veh CCDC152 (11743942_at) / RFU ECM1 (11717891_a_at) / Fold change /veh ECM1 (11717891_a_at) / RFU IL23R (11748794_a_at) / Fold change /veh IL23R (11748794_a_at) / RFU TNFAIP8L3 (11732012_x_at) / Fold change /veh TNFAIP8L3 (11732012_x_at) / RFU MBOAT4 (11741988_at) / Fold change /veh MBOAT4 (11741988_at) / RFU 11764193_at / Fold change /veh 11764193_at / RFU TMEM53 (11763286_at) / Fold change /veh TMEM53 (11763286_at) / RFU MAGEB2 (11727129_at) / Fold change /veh MAGEB2 (11727129_at) / RFU TMEM200A (11744735_a_at) / Fold change /veh TMEM200A (11744735_a_at) / RFU CCDC152 (11751479_a_at) / Fold change /veh CCDC152 (11751479_a_at) / RFU FAM211A (11726209_a_at) / Fold change /veh FAM211A (11726209_a_at) / RFU RGS16 (11746705_a_at) / Fold change /veh RGS16 (11746705_a_at) / RFU VCAN (11755009_s_at) / Fold change /veh VCAN (11755009_s_at) / RFU RHOB (11743442_s_at) / Fold change /veh RHOB (11743442_s_at) / RFU RGS16 (11720943_a_at) / Fold change /veh RGS16 (11720943_a_at) / RFU RGS16 (11720944_at) / Fold change /veh RGS16 (11720944_at) / RFU, VPS4B / Fold change vs veh, VPS4B / RFU, CREB1 / Fold change vs veh, CREB1 / RFU, DNAJC13 / Fold change vs veh, DNAJC13 / RFU, GNAQ / Fold change vs veh, GNAQ / RFU, CDK5R1 / Fold change vs veh, CDK5R1 / RFU, ZRANB3 / Fold change vs veh, ZRANB3 / RFU, CUL4A / Fold change vs veh, CUL4A / RFU, CCNY / Fold change vs veh, CCNY / RFU, UFL1 / Fold change vs veh, UFL1 / RFU, COG3 / Fold change vs veh, COG3 / RFU, DIAPH2 / Fold change vs veh, DIAPH2 / RFU, SKA2 / Fold change vs veh, SKA2 / RFU, AFF3 / Fold change vs veh, AFF3 / RFU, LMF1 / Fold change vs veh, LMF1 / RFU, IPO11 / Fold change vs veh, IPO11 / RFU, DFFB / Fold change vs veh, DFFB / RFU, FOXP1 / Fold change vs veh, FOXP1 / RFU, CARD8 / Fold change vs veh, CARD8 / RFU, STRN3 / Fold change vs veh, STRN3 / RFU, ADK / Fold change vs veh, ADK / RFU, RASSF2 / Fold change vs veh, RASSF2 / RFU, WIPF1 / Fold change vs veh, WIPF1 / RFU, LARP1B / Fold change vs veh, LARP1B / RFU, RASA1 / Fold change vs veh, RASA1 / RFU, RB1 / Fold change vs veh, RB1 / RFU, PPFIA1 / Fold change vs veh, PPFIA1 / RFU, MAT2A / Fold change vs veh, MAT2A / RFU, CCT5 / Fold change vs veh, CCT5 / RFU, WDR92 / Fold change vs veh, WDR92 / RFU, CUX1 / Fold change vs veh, CUX1 / RFU, TTC7A / Fold change vs veh, TTC7A / RFU, TMEM135 / Fold change vs veh, TMEM135 / RFU, DEPTOR / Fold change vs veh, DEPTOR / RFU, CPM / Fold change vs veh, CPM / RFU, DNAJB6 / Fold change vs veh, DNAJB6 / RFU, CACNA2D3 / Fold change vs veh, CACNA2D3 / RFU, DTX4 / Fold change vs veh, DTX4 / RFU, TFCP2 / Fold change vs veh, TFCP2 / RFU, GMCL1 /// GMCL1P1 / Fold change vs veh, GMCL1 /// GMCL1P1 / RFU, AEBP2 / Fold change vs veh, AEBP2 / RFU, SNHG1 /// SNORD22 /// SNORD25 /// SNORD26 /// SNORD27 /// SNORD28 /// SNORD29 /// SNORD31 / Fold change vs veh, SNHG1 /// SNORD22 /// SNORD25 /// SNORD26 /// SNORD27 /// SNORD28 /// SNORD29 /// SNORD31 / Fold change (Aza/veh), C12orf56 (ProbeSet 11735607_a_at) / Fold change (ACY-1035/veh), C12orf56 (ProbeSet 11735607_a_at) / Fold change (Aza/veh), FGFR1OP (ProbeSet 11751329_s_at) / Fold change (ACY-1035/veh), FGFR1OP (ProbeSet 11751329_s_at) / Fold change (Aza/veh), VPS36 (ProbeSet 11739960_a_at) / Fold change (ACY-1035/veh), VPS36 (ProbeSet 11739960_a_at) / RFU SYPL1 (11715823_x_at) / Fold change /veh SYPL1 (11715823_x_at) / RFU IGFBP7 (11715501_s_at) / Fold change /veh IGFBP7 (11715501_s_at) / RFU REEP3 (11722064_at) / Fold change /veh REEP3 (11722064_at) / RFU IGLL1 (11728026_x_at) / Fold change /veh IGLL1 (11728026_x_at): dose or concentration left out as unconfirmed
Settings: ProbeSet 11732277_a_at; LIST D

Nc1ccc(-c2cccs2)cc1NC(=O)c1ccc2c(c1)cc(C1CC1)n2CCN1CCOCC1 [ACY-1035]
RFU, FOXP1: 575.26 RFU
